# In ChEMBL document CHEMBL1150120, “New vibsane diterpenes and lupane triterpenes from Viburnum odoratissimum” (2002):
# *1 amine or outer side, *2 acyl side, *3 side chain or, on linkers, in order; H or OH if unused. Where a SMILES comes first, the peptide text is derived from it. Bridges are numbered along the chain shown (N, C = ends). Roman numbers before positions name the chains, in order. [ ]: non-standard residue; d: D form. Actinocin(1to9) = Cc1c2oc3c(C)ccc(C(=O)[*:2])c3nc-2c(C(=O)[*:1])c(N)c1=O; NMeV = CN[C@H](C(=O)O)C(C)C; Sar = CNCC(=O)O
# Tests used:
# NUGC [1] = assay: Cytotoxicity against human NUGC cells assessed as cell growth at 10 uM after 3 to 24 hrs by MTS assay; type: functional; details: read-out: Activity
# NUGC [2] = assay: Cytotoxicity against human NUGC cells assessed as cell growth at 5 uM after 3 to 24 hrs by MTS assay; type: functional; details: read-out: Activity
Structure (SMILES),growth at 10 µM (NUGC [1]),growth at 5 µM (NUGC [2])
C=C(C)[C@@H]1CC[C@]2(C(=O)O)CC[C@]3(C(=O)O)[C@H](CC[C@@H]4[C@@]5(C)CCC(=O)C(C)(C)[C@@H]5[C@@H](O)C[C@]43C)[C@@H]12,> 50%,–
C=C(C)[C@@H]1CC[C@]2(C(=O)O)CC[C@]3(C(=O)O)[C@H](CC[C@@H]4[C@@]5(C)CCC(=O)C(C)(C)[C@@H]5[C@H](O)C[C@]43C)[C@@H]12,20%,–
"Cc1c2oc3c(C)ccc(C(=O)N[C@@H]4C(=O)N[C@H](C(C)C)C(=O)N5CCC[C@H]5C(=O)N(C)CC(=O)N(C)[C@@H](C(C)C)C(=O)O[C@@H]4C)c3nc-2c(C(=O)N[C@@H]2C(=O)N[C@H](C(C)C)C(=O)N3CCC[C@H]3C(=O)N(C)CC(=O)N(C)[C@@H](C(C)C)C(=O)O[C@@H]2C)c(N)c1=O [DACTINOMYCIN] (I: T[dV]P[Sar][NMeV] / II: T[dV]P[Sar][NMeV]; ester I:1-I:C, II:1-II:C; linker I:N-II:N via Actinocin(1to9))",–,0%
CC(C)=CC(=O)O[C@@H]1/C=C/[C@@](C)(C/C=C/C(C)(C)O)C/C=C(/CO)C(=O)/C=C/[C@@]1(C)O [VABSANOL A],15%,–
C=C(C)C(O)CC[C@]1(C)/C=C/[C@@H](OC(=O)C=C(C)C)[C@](C)(O)/C=C/C(=O)/C(CO)=C\C1 (stereo not given in full) [VIBSANOL B],> 50%,–
